Results reported in patent publication US20080293712A1, “Benzo[C][2,7]Naphtyridine Derivatives, Methods of Making Thereof and Methods of Use Thereof” (WYETH, priority 2007, published 2008).
Like-named read-outs stand apart in the source and are kept apart here.

Biological target: T1, PDK-1 (Homo sapiens, UniProt O15530)
T1 sequence (O15530 1-556): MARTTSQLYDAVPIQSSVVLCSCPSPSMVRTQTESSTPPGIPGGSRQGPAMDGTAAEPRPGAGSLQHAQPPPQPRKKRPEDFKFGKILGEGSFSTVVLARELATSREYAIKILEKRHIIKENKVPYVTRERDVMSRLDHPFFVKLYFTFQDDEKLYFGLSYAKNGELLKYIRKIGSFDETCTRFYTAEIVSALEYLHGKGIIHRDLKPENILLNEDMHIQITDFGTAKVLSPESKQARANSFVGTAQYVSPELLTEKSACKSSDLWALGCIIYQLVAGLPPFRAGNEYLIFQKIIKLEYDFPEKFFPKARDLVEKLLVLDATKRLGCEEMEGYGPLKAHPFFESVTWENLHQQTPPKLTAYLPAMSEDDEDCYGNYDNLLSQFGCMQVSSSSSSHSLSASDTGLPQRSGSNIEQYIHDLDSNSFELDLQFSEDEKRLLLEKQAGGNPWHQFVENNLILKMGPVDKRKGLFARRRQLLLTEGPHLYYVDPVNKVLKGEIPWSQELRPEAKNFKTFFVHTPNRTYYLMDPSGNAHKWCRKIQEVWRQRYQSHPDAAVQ
Assay: PDK-1 kinase inhibition ELISA assay (phosphorylation of His6-tagged SGK1 S422D by PDK-1)
Assay type: biochemical

[1] = PDK-1 ELISA, Table 11, read-out: Average IC50

Compound	IC50 [1]	IC50
COCCOc1cc2ncc3c(N)nc(NCCN4CCCCC4)cc3c2cc1OC [Ia-49, 9-methoxy-8-(2-methoxyethoxy)-N^2-(2-piperidin-1-ylethyl)benzo[c]-2,7-naphthyridine-2,4-diamine]	> 20000 nM	
COCCNc1cc2c(cnc3cc(OCCOC)c(OC)cc32)c(N)n1 [Ia-55, 9-methoxy-8-(2-methoxyethoxy)-N^2-(2-methoxyethyl)benzo[c]-2,7-naphthyridine-2,4-diamine]		7490 nM
COc1cc2ncc3c(N)nc(N4CC[C@H](O)C4)cc3c2cc1OC [Ib-68, (3S)-1-(4-amino-8,9-dimethoxybenzo[c]-2,7-naphthyridin-2-yl)pyrrolidin-3-ol]	4120 nM	
COc1cc2ncc3c(N)nc(-c4cc(F)cc(C#N)c4)cc3c2cc1OC [Ib-241, 3-(4-amino-8,9-dimethoxybenzo[c][2,7]naphthyridin-2-yl)-5-fluorobenzonitrile]	1000 nM	
COCCOc1cc2ncc3c(N)nc(N4CCC(C)CC4)cc3c2cc1OC [Ia-50, 9-methoxy-8-(2-methoxyethoxy)-2-(4-methylpiperidin-1-yl)benzo[c]-2,7-naphthyridin-4-amine]	2440 nM	
COCCOc1cc2ncc3c(N)nc(N4CCOCC4)cc3c2cc1OC [Ia-57, 9-Methoxy-8-(2-methoxyethoxy)-2-morpholin-4-ylbenzo[c]-2,7-naphthyridin-4-amine]	6420 nM	
COc1cc2ncc3c(N)nc(-c4cncc(CCC5(N)CCCCC5)c4)cc3c2cc1OC [Ib-258, 2-{5-[2-(1-aminocyclohexyl)ethyl]pyridin-3-yl}-8,9-dimethoxybenzo[c][2,7]naphthyridin-4-amine]	27 nM	
COc1cc2ncc3c(N)nc(-c4cccc(C(=O)N5CCN(c6ccccn6)CC5)c4)cc3c2cc1OC [Ib-247, 8,9-dimethoxy-2-{3-[(4-pyridin-2-ylpiperazin-1-yl)carbonyl]phenyl}benzo[c][2,7]naphthyridin-4-amine]	1000 nM	
COCCOc1cc2ncc3c(N)nc(N(C)CCOC)cc3c2cc1OC [Ia-54, 9-methoxy-8-(2-methoxyethoxy)-N^2-(2-methoxyethyl)-N^2-methylbenzo[c]-2,7-naphthyridine-2,4-diamine]	2260 nM	
COc1cc2ncc3c(N)nc(-c4cncc(OC[C@@H](N)CNC5CCCCC5)c4)cc3c2cc1OC [Ib-89, (2S)-3-{[5-(4-amino-8,9-dimethoxybenzo[c][2,7]naphthyridin-2-yl)pyridin-3-yl]oxy}-N1-cyclohexylpropane-1,2-diamine]	61 nM	
COc1cc2ncc3c(N)nc(-c4cncc(OC[C@@H](N)CSc5ncc(CO)n5C)c4)cc3c2cc1OC [Ib-167, (2-{[(2R)-2-amino-3-{[5-(4-amino-8,9-dimethoxybenzo[c][2,7]naphthyridin-2-yl)pyridin-3-yl]oxy}propyl]thio}-1-methyl-1H-imidazol-5-yl)methanol]	5 nM	
COCCOc1cc2ncc3c(NCc4cccnc4)nc(NCc4cccnc4)cc3c2cc1OC [Compound I-3, 9-methoxy-8-(2-methoxyethoxy)-N,N′-bis(pyridin-3-ylmethyl)benzo[c]-2,7-naphthyridine-2,4-diamine]	8830 nM	
CCN1CCCC1CNc1cc2c(cnc3cc(OCCOC)c(OC)cc32)c(NCC2CCCN2CC)n1 (stereo not shown) [Compound I-4, N,N′-bis[(1-ethylpyrrolidin-2-yl)methyl]-9-methoxy-8-(2-methoxyethoxy)benzo[c]-2,7-naphthyridine-2,4-diamine]	> 20000 nM	
COc1cc2ncc3c(N)nc(N4CC[C@@H](O)C4)cc3c2cc1OC [Ib-65, (3R)-1-(4-amino-8,9-dimethoxybenzo[c]-2,7-naphthyridin-2-yl)pyrrolidin-3-ol]	4610 nM	
CCOC1(OCC)CCN(C[C@H](N)COc2cncc(-c3cc4c(cnc5cc(OC)c(OC)cc54)c(N)n3)c2)CC1 [Ib-5, 2-(5-{[(2S)-2-amino-3-(4,4-diethoxypiperidin-1-yl)propyl]oxy}pyridin-3-yl)-8,9-dimethoxybenzo[c]-2,7-naphthyridin-4-amine]	26 nM	

Further lines, results first:

IC50 [1]	IC50	Compound
> 100 nM		COc1cc2ncc3c(N)nc(-c4cncc(C#CCN(C)[C@H](C)Cc5ccccc5)c4)cc3c2cc1OC [Ib-22, 8,9-Dimethoxy-2-[5-(3-{methyl[(1R)-1-methyl-2-phenylethyl]amino}prop-1-yn-1-yl)pyridin-3-yl]benzo[c]-2,7-naphthyridin-4-amine]
27 nM		COc1cc2ncc3c(N)nc(-c4cncc(CCCN)c4)cc3c2cc1OC [Ib-256, 2-[5-(3-aminopropyl)pyridin-3-yl]-8,9-dimethoxybenzo[c][2,7]naphthyridin-4-amine]
41 nM		COc1cc2ncc3c(N)nc(-c4cncc(OC[C@@H](N)CNCC5(c6ccccc6)CCCC5)c4)cc3c2cc1OC [Ib-105, (2S)-3-{[5-(4-amino-8,9-dimethoxybenzo[c][2,7]naphthyridin-2-yl)pyridin-3-yl]oxy}-N1-[(1-phenylcyclopentyl)methyl]propane-1,2-diamine]
	434 nM	COc1cccc(Nc2cncc(-c3cc4c(cnc5cc(OC)c(OC)cc54)c(N)n3)c2)c1 [Ib-176, 8,9-dimethoxy-2-{5-[(3-methoxyphenyl)amino]pyridin-3-yl}benzo[c][2,7]naphthyridin-4-amine]
5 nM		COc1cc2ncc3c(N)nc(-c4cncc(OCCN)c4)cc3c2cc1OC [Ib-11, 2-(5-(2-aminoethoxy)pyridin-3-yl)-8,9-dimethoxybenzo [c][2,7]naphthyridin-4-amine]
6 nM		COc1cc2ncc3c(N)nc(-c4cncc(OC[C@@H](N)COc5nc6ccccc6s5)c4)cc3c2cc1OC [Ib-150, 2-(5-{[(2R)-2-amino-3-(1,3-benzothiazol-2-yloxy)propyl]oxy}pyridin-3-yl)-8,9-dimethoxybenzo[c][2,7]naphthyridin-4-amine]
12 nM		COc1cc2ncc3c(N)nc(-c4cncc(OC[C@@H](N)CNC(C)(C)Cc5ccc(F)cc5)c4)cc3c2cc1OC [Ib-87, (2S)-3-{[5-(4-amino-8,9-dimethoxybenzo[c][2,7]naphthyridin-2-yl)pyridin-3-yl]oxy}-N1-[2-(4-fluorophenyl)-1,1-dimethylethyl]propane-1,2-diamine]
1000 nM		COc1cc2ncc3c(N)nc(-c4cncc(Nc5ccccc5OCc5ccccc5)c4)cc3c2cc1OC [Ib-202, 2-(5-{[2-(benzyloxy)phenyl]amino}pyridin-3-yl)-8,9-dimethoxybenzo[c][2,7]naphthyridin-4-amine]
142 nM		COc1cc2ncc3c(N)nc(-c4cncc(Nc5ccc(CO)cc5)c4)cc3c2cc1OC [Ib-194, (4-{[5-(4-amino-8,9-dimethoxybenzo[c][2,7]naphthyridin-2-yl)pyridin-3-yl]amino}phenyl)methanol]
3 nM		COc1cc2ncc3c(N)nc(-c4cncc(OC[C@@H](N)CSc5nccs5)c4)cc3c2cc1OC [Ib-166, 2-(5-{[(2R)-2-amino-3-(1,3-thiazol-2-ylthio)propyl]oxy}pyridin-3-yl)-8,9-dimethoxybenzo[c][2,7]naphthyridin-4-amine]
	47 nM	COc1cc2ncc3c(N)nc(-c4cncc(Nc5ccccc5CO)c4)cc3c2cc1OC [Ib-196, (2-{[5-(4-amino-8,9-dimethoxybenzo[c][2,7]naphthyridin-2-yl)pyridin-3-yl]amino}phenyl)methanol]
532 nM		COc1cc2ncc3c(N)nc(-c4cccnc4C)cc3c2cc1OC [Ib-60]
600 nM		COc1cc2ncc3c(N)nc(-c4cncc(Nc5ccc(C#N)cc5)c4)cc3c2cc1OC [Ib-180, 4-{[5-(4-amino-8,9-dimethoxybenzo[c][2,7]naphthyridin-2-yl)pyridin-3-yl]amino}benzonitrile]
110 nM		CNC(=O)c1ccccc1Nc1cncc(-c2cc3c(cnc4cc(OC)c(OC)cc43)c(N)n2)c1 [Ib-187, 2-{[5-(4-amino-8,9-dimethoxybenzo[c][2,7]naphthyridin-2-yl)pyridin-3-yl]amino}-N-methylbenzamide]
32 nM		COc1cc2ncc3c(N)nc(-c4cncc(OC[C@@H](N)CNCC5(c6ccccc6)CC5)c4)cc3c2cc1OC [Ib-106, (2S)-3-{[5-(4-amino-8,9-dimethoxybenzo[c][2,7]naphthyridin-2-yl)pyridin-3-yl]oxy}-N1-[(1-phenylcyclopropyl)methyl]propane-1,2-diamine]
476 nM		COc1cc2ncc3c(N)nc(-c4cncc(Nc5ccccn5)c4)cc3c2cc1OC [Ib-199, 8,9-dimethoxy-2-[5-(pyridin-2-ylamino)pyridin-3-yl]benzo[c][2,7]naphthyridin-4-Amine]
158 nM		COc1cc2ncc3c(N)nc(-c4cncc(Nc5cccnc5)c4)cc3c2cc1OC [Ib-200, 8,9-dimethoxy-2-[5-(pyridin-3-ylamino)pyridin-3-yl]benzo[c][2,7]naphthyridin-4-Amine]
> 700 nM		COc1cc2ncc3c(N)nc(-c4cncc(Nc5cccc(C#N)c5)c4)cc3c2cc1OC [Ib-179, 3-{[5-(4-amino-8,9-dimethoxybenzo[c][2,7]naphthyridin-2-yl)pyridin-3-yl]amino}benzonitrile]
197 nM		COc1cc2ncc3c(N)nc(-c4cncc(Nc5c(F)c(F)c(C(N)=O)c(F)c5F)c4)cc3c2cc1OC [Ib-190, 4-{[5-(4-amino-8,9-dimethoxybenzo[c][2,7]naphthyridin-2-yl)pyridin-3-yl]amino}-2,3,5,6-tetrafluorobenzamide]
